Source: article PMC10781691, “Vertical pathway inhibition of receptor tyrosine kinases and BAD with synergistic efficacy in triple negative breast cancer” (NPJ Precision Oncology, 2024)
Read-outs that look alike come from different tables or passages of the source.

Experiments:
Recombinant human BAD = biological target: T1, Recombinant human BAD (Homo sapiens, UniProt Q92934); assay: SPR (BIAcore) with BAD immobilized on sensor chip; type: binding; settings: analyte 1.25–160 μM
T1 construct: purchased Novoprotein, Suzhou, China
Protocol: To compare the binding affinity of NCK and NPB towards BAD, we performed surface plasmon resonance (SPR) measurement by immobilizing BAD protein on a sensor chip with NCK or NPB as analyte. Representative reference-subtracted overlaid sensorgrams and the kinetic parameters are specified in Fig. 2d and Supplementary Fig. 6A. […] Additionally, the pharmacological inhibition of BAD phosphorylation by NCK or NPB in TNBC cells was evaluated. […] Furthermore, the comparative potencies of NPB and NCK were evaluated in eight TNBC cell lines using total cell number assay in 2D culture and cell viability in 3D culture (Supplementary Fig. 6C, D).

BT549 cells [1] = assay: Cell cycle analysis by PI flow cytometry; type: cell-based, human; settings: BT549, 5 μM
[2] = Pharmacokinetics after IV and oral administration; type: in vivo, Sprague-Dawley (SD) rats; parameters: AUClast/D: unit not given here; settings: SD rats; for MRT inf: read-out: MRTInf_obs
Protocol: The pharmacokinetics of NCK were determined via intravenous (IV) and oral administration in Sprague-Dawley (SD) rats (Supplementary Fig. 7).
Supplementary Figure 7: (A) Plasma concentration of NCK after intravenous (IV, 1 mg/kg) (red) or oral (PO, 10 mg/kg) (blue) administration in SD rats. Results represent the mean ± SD of three animals. (B) Pharmacokinetic parameters of NCK in plasma after IV injection (1 mg/kg) or oral administration (10 mg/kg). AUCinf: Area Under the Plasma Concentration-Time Curve from t=0 to infinity; AUClast: Area Under the Plasma Concentration-Time Curve from t=0 to last measurable positive concentration; AUC_%Extrap_obs: Percent Extrapolated AUC from tlast to infinity; C0: Initial concentration in plasma; Cmax: Peak concentration in plasma; Cl_obs:
Plasma systemic clearance; F: Absolute oral bioavailability; MRTInf_obs: Mean residence time from t=0 to infinity ;T1/2: Elimination half- life; Tmax: Time of peak concentration in plasma; Vss_obs: Volume of Distribution at Steady- state

BT549 cells [3] = assay: Total cell number assay, 2D culture; type: cell-based, human
Protocol: (§1) Fold difference was calculated. Data represent means ± SD (n = 3).

MDA-MB-231 cells [4] = assay: Total cell number assay, 2D culture; type: cell-based, human
Protocol: as §1

BT549 cells [5] = assay: AlamarBlue cell viability, 3D Matrigel culture; type: cell-based, human
TNBC cell lines = assay: 2D total cell number and 3D viability in eight TNBC cell lines; type: cell-based, human
MDA-MB-231 cells [6] = assay: Cell survival after siRNA-BAD or scrambled control and NCK; type: cell-based, human
Description: To confirm the functional specificity of NCK to BAD, the effect of NCK treatment after siRNA-mediated depletion of BAD expression was examined in MDA-MB-231 cells. […] Consistent with previous findings[32]–[34], no significant changes in cell viability nor CASPASE 3/7 activity were observed upon transfection of siRNA directed to the BAD transcript (Fig. 2g–i).

MDA-MB-231 cells [7] = assay: Cell cycle analysis by PI flow cytometry; type: cell-based, human; settings: MDA-MB-231, 5 μM
Description: Fig. 3 NCK enhances apoptosis and impedes cell-cycle progression in TNBC cells. a Hallmark analysis of the differential expressed genes (DEGs). […] NES, normalized enrichment score. FDR, false discovery rate.
Supplementary Figure 9: (A) Representative flow cytometry plots using PI staining for DNA
or NPB using flow cytometry analysis.

BT549 cells [8] = assay: AlamarBlue assay IC50 (Supplementary Fig. 5A); type: cell-based; settings: Homo sapiens, BT-549
Description: (§2) Ionization potential (I ) 7.21 eV
(§3) Electron affinity (A) 4.79 eV
(§4) Chemical potential (μ) 6.00 eV […]
(§5) using AlamarBlue assay. Data represent means ± SD. (B) Cartoon representation of the compounds NPB (red) and NCK (black) (depicted in ball & stick model) docked to the BAD protein, occupying the same groove with the BAD Serine 99 residue (yellow) nearby. (C) 2D structure representation of compound NPB interacting with BAD protein residues. (D) Cartoon representation of docked compound and molecular electrostatic potential surfaces of NCK. The color code of the compound lies in the range of -0.121e0 to +0.121e0. Red and blue color in the MEP structure point to more electron rich and electron poor regions respectively. (E) The […]

MDA-MB-231 cells [9] = assay: AlamarBlue assay IC50 (Supplementary Fig. 5A); type: cell-based; settings: Homo sapiens; MDA-MB-231, AlamarBlue assay
Description: as §2, §3, §4, §5

MDA-MB-231 cells [10] = assay: AlamarBlue cell viability, 3D Matrigel culture; type: cell-based, human
CSF-1R = tested on: CSF-1R; parameters: method as in SelleckChem; settings: ref SelleckChem; cited from earlier work
Flt1 = tested on: Flt1; parameters: method as in SelleckChem; settings: ref SelleckChem; cited from earlier work
c-Kit = settings: read-out: potency on Kit; cited from earlier work
MDA-MB-231 cells [11] = assay: Cambridge cancer compound library screen in combination with NCK; type: cell-based, human; settings: compound at IC25 with NCK 0.1, 1, 10 μM, 72 h, AlamarBlue
Protocol: Cancer compound library screening was performed using IC25 values of anti-cancer compounds (predicted with Genomics of Drug Sensitivity in Cancer (https://www.cancerrxgene.org/) and NCK at 3-point dilutions (0.1, 1, 10 μM) in medium containing 2% FBS to identify potential synergistic combinations. In detail, MDA-MB-231 cells (5 ×10^3) were seeded in 96-well plates in 80 μl of culture medium (2% FBS) and allowed to settle overnight. 24-hour post-seeding, 10 μl of compounds dissolved in culture medium were prepared and added to the plates to reach a final concentration of IC25 of the respective compound. 10 μl of NCK was also added into cell plates to yield a final concentration of 0.1, 1 or 10 μM. After 72-hours of treatment, cell viability was determined with AlamarBlue reagent and fluorescence was measured using a Tecan microplate reader, as previously described[29].

c-Raf = tested on: c-Raf; parameters: method as in SelleckChem; settings: ref SelleckChem; cited from earlier work
LCK = tested on: LCK; parameters: method as in SelleckChem; settings: ref SelleckChem; cited from earlier work
[12] = Sprague-Dawley, rat, plasma, IV 1 mg/kg
[13] = Sprague-Dawley, rat, plasma, PO 10 mg/kg

T1 sequence (Q92934 whole entry): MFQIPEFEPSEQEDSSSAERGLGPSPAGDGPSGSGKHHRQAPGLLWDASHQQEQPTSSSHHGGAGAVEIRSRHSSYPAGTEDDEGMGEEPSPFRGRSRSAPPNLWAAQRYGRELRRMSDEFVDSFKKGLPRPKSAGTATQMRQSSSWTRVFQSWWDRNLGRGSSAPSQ

## Oc1ccccc1C(c1cccnc1)N1CCN(c2cccc(Cl)c2Cl)CC1 (stereo not drawn) [NCK, 2-((4-(2,3-dichlorophenyl)piperazin-1-yl)(pyridin-3-yl)methyl) phenol]
Recombinant human BAD; read-out: Affinity (KD)
  Kd: 48.1 nM
Recombinant human BAD; read-out: Association (Ka)
  kon: 111000 M⁻¹ s⁻¹
BT549 cells [1]
  decrease in S-phase: 27.12%
  increase in G1-phase: 30.43%
[2]; IV 1 mg/kg
  AUC_%Extrap_obs: 2.51%
  AUClast/D: 280
  Vss_obs: 5.93 L/kg
[2]; PO 10 mg/kg
  AUC_%Extrap_obs: 2.14%
  AUClast/D: 105
[2]; [12]
  AUC(0-inf): 288 ng·h/mL
  AUC(0-t): 280 ng·h/mL
  C0: 554 ng/mL
  half-life: 3.35 h
  MRT inf: 1.72 h
[2]; Sprague-Dawley, rat, plasma, PO 10 mg/kg vs IV 1 mg/kg, read-out: F (absolute oral bioavailability)
  bioavailability: 37.2%
[2]; [13]
  AUC(0-inf): 1070 ng·h/mL
  AUC(0-t): 1050 ng·h/mL
  Cmax: 346 ng/mL
  Tmax: 0.33 h
  half-life: 2.68 h
  MRT inf: 4 h
[2]; Sprague-Dawley, rat, IV 1 mg/kg, plasma, read-out: Cl_obs (clearance)
  clearance: 58.3 mL/min/kg
BT549 cells [3]; BT549, 2D
  fold IC50 difference NCK vs NPB: ~ 2 fold
BT549 cells [3]; Homo sapiens, BT-549, BT549, 2% FBS
  IC50: 1700 nM
MDA-MB-231 cells [4]; Homo sapiens, MDA-MB-231, 2% FBS
  IC50: 1010 nM
MDA-MB-231 cells [4]; MDA-MB-231, 2D
  fold IC50 difference NCK vs NPB: ~ 3 fold
BT549 cells [5]; BT549, 5 μM each
  growth in 3D Matrigel: reduced cell growth in 3D Matrigel
BT549 cells [5]; BT549, 3D Matrigel
  fold IC50 difference NCK vs NPB: ~ 8 fold
BT549 cells [5]; Homo sapiens, BT-549, BT549, 3D Matrigel, AlamarBlue
  IC50: 309 nM
TNBC cell lines
  potency vs NPB in reducing 2D and 3D cell viability: more potent than NPB
MDA-MB-231 cells [6]; MDA-MB-231, 5 μM NCK
  cell viability vs vehicle: decreased cell viability
MDA-MB-231 cells [6]; MDA-MB-231, siRNA-BAD, 5 μM NCK
  effect on cell viability and CASPASE 3/7 activity after siRNA-mediated depletion of BAD: abolished the effect of NCK
MDA-MB-231 cells [7]
  decrease in S-phase: 15.68%
  increase in G1-phase: 17.75%
BT549 cells [8]
  IC50: 12100 ± 1360 nM
MDA-MB-231 cells [9]
  IC50: 4940 ± 2800 nM
MDA-MB-231 cells [10]; Homo sapiens, MDA-MB-231, 3D Matrigel, AlamarBlue
  IC50: 239 nM
MDA-MB-231 cells [10]; MDA-MB-231, 5 μM each
  growth in 3D Matrigel: reduced cell growth in 3D Matrigel
MDA-MB-231 cells [10]; MDA-MB-231, 3D Matrigel
  fold IC50 difference NCK vs NPB: ~ 6 fold

## O=C(Nc1ccc(OC(F)(F)F)cc1)c1sccc1NCc1ccnc2ccccc12 [OSI-930]
CSF-1R
  IC50: 15 nM
Flt1
  IC50: 8 nM
c-Kit
  IC50: 80 nM
MDA-MB-231 cells [11]
  synergy with NCK in compound library screen (CI, Bliss independence): low CI (high synergy)
c-Raf
  IC50: 41 nM
LCK
  IC50: 22 nM
